{
  "source": "patent US20090104122A1",
  "about": "“DETECTION OF MEMBRANE ANDROGEN RECEPTOR (mAR) AGENTS” (priority 2006, published 2009)",
  "key": {"RhoA": {"test_system": "RhoA", "assay": "RhoA activation after mAR activation", "type": "cell-based, human", "conditions": "10^-7 M, DU145 cells", "excerpt": "Looking for an alternative mechanism mediating the non-genomic testosterone signaling in DU145 cells we analyzed a possible rapid activation of Rho-GTPase's. Indeed, among the signaling effectors that regulate such processes of actin reorganization, the best understood are small GTPases of the Rho family. Classically, plasma membrane receptors activate specific guanine exchange factors (GEFs) often via phosphorylation, which leads to subsequent loading of Rho GTPases with GTP. Active Rho GTPases continue signal transmission towards Rho coiled-coiled kinase 1 (ROCK1) and/or p21-activated kinase 1 (Pak1). Activated […] phosphorylate and activate Lim-kinases 1 and 2 (Limk1 and Limk2) respectively. Limk1 and Limk2 are closely related proteins composed of two N-terminal Lim domains and a C-terminal kinase domain. The Lim domains are protein-binding motifs frequently found in cytosolic proteins that interact with the actin cytoskeleton. Eventually, Limk1 and Limk2 phosphorylate actin-depolymerizing proteins such as cofilin and actin-depolymerizing factor (ADF), which are inactivated and thus permit actin polymerization to occur. […] To further analyze the downstream effector of RhaA activation, DU145 cells, activated with testo-BSA were treated with the specific ROCK inhibitor Y27632 and actin redistribution was documented quantitatively using the G/Total-actin ratio."}, "[1]": {"test_system": "LNCaP-inoculated nude mice", "assay": "In vivo tumor growth in LNCaP-inoculated nude mice", "conditions": "8 mg/kg weight for one month, compared to control animals"}, "DU145 cells [2]": {"test_system": "DU145 cells", "assay": "Quantitative measurement of apoptosis (APOPercentage Apoptosis Assay)", "type": "cell-based, human", "conditions": "for effect on testo-BSA induced apoptotic response: DU145 cells, signaling inhibitors; for effect on apoptotic response of DU145 cells treated with Testo-BSA: 10^-6 M, agents blocking actin reorganization", "excerpt": "In order to analyze a possible cross-talk between actin cytoskeleton reorganization and apoptosis upon mABS activation, we studied the apoptotic response of DU145 cells in the presence of specific agents blocking actin reorganization. […] The FACS analysis fully supported these observations. […] This assumption is in line with previously published data, showing that actin reorganization is an important signaling step, regulating NFkB translocation and transcriptional regulation of TNFα induced anti-apoptotic response (Papakonstanti and Stounaras, Mol Biol Cell, 2004).\nThe APOPercentage Apoptosis Assay (Biocolor Ltd., Belfast, N. Ireland) was used to quantify apoptosis, according to manufacturer's instructions. This kit uses a dye that stains red the apoptotic cells undergoing the membrane “flip-flop” event when phosphatidylserine is translocated to the outer leaflet. Detection of apoptosis can be readily observed under inverted microscopy. For apoptosis quantitation, the amount of dye within the labeled cells can subsequently be released into solution and the concentration measured at a wavelength of 550 nm (reference filter 620 nm) using a color filter microplate […] (Dynatech MicroElisa reader Chantilly, Va.)."}, "[3]": {"test_system": "prostate-specific antigen (PSA)", "conditions": "within minutes; cited from earlier work"}, "FAK/PI-3K/Rac1 pathway": {"test_system": "FAK/PI-3K/Rac1 pathway", "assay": "FAK/PI-3K/Rac1 signaling after mAR activation", "type": "cell-based, human", "conditions": "DU145 cells, FAK constitutively phosphorylated", "excerpt": "Indeed, as shown in FIGS. 5A-B, FAK was constitutively phosphorylated in DU145 cells. […] These findings imply the existence of an alternative non-genomic signaling cascade regulating the rapid actin reorganization shown in FIGS. 2A-B."}, "DU-145 cells": {"test_system": "DU-145 cells", "assay": "Cell migration, adhesion and invasion after mAR activation", "type": "cell-based, human", "excerpt": "(§1) This contact induced significant actin remodelling followed by a decrease in cell migration, adhesion and invasion. […] Activation of the pathway induced signaling and actin reorganization. The pathway is not activated in LNCAP cells. […] This effect was not observed with the anti-androgen flutamide."}, "LNCAP cells": {"test_system": "LNCAP cells", "assay": "Induction of apoptosis in LNCaP cells", "type": "cell-based, human", "excerpt": "as §1"}, "DU145 cells [4]": {"test_system": "DU145 cells", "assay": "Immunoblot analysis of Triton-soluble and insoluble actin (actin polymerization)", "type": "cell-based, human", "conditions": "DU145 cells activated with testosterone-BSA", "excerpt": "There has been recognition that activation of mAR sites in LNCaP human prostate cancer cells results within minutes, in a significant rearrangement of the actin cytoskeleton, as indicated by the potent actin polymerization and microfilament reorganization (Kampa et al 2002). Using both, non-permeable testosterone analogs and specific inhibitors or antagonists of the intracellular androgen receptors (iAR), we provided strong evidence that in LNCaP cells this phenomenon was induced through the activation of the mARs. […] These quantitative results were fully supported by confocal laser scanning microscopic analysis of the actin cytoskeleton in testo-BSA treated DU145 cells. Indeed, a complete submembranous redistribution of the microfilamentous structures became evident within 10 minutes and persisted for at least 2 hours, as shown in FIGS. 3A-C.\nThe Triton-soluble proteins were precipitated with equal amounts of 6% perchloric acid (PCA). The Triton-insoluble fractions were precipitated with 1 ml of 3% PCA. Equal volumes of each fraction were subjected to SDS electrophoresis and proteins were transferred to a nitrocellulose membrane, using the LKB electrophoresis apparatus (LKB, Bromma, Sweden). […] Blots were developed using the enhanced chemiluminescence system, and the band intensities were quantitated by PC-based image analysis (Image Analysis, Inc., Ontario, Canada)."}},
  "note": "Numbered stars: 1 amine (or outer) side, 2 acyl side, 3 side chain; on linkers, the order of the positions; unused ones are H or OH. Bridge positions count the residues as written; N and C are the ends. Square brackets hold non-standard residues; d marks the D form. Peptide text beside a SMILES is read from it. ξ: configuration not given here. ξTrp(2-yl) = O=C(C(Cc1c([*:3])[nH]c2ccccc12)N[*:1])[*:2]; X1 = CC(O)(CO)CC(N[*:1])C(=O)[*:2]; ξAsp(3ξ-OH) = NC(C(=O)O)C(O)C(=O)O; Hyp = O=C(O)[CH]1C[CH](O)CN1",
  "data": [
    {"molecule": "testosterone 3-(O-carboxymethyl)oxime:BSA [testosterone-BSA]", "values": [
      {"measurement": "persistence of RhoA activation", "setting": "RhoA", "value": "up to two hours"},
      {"measurement": "time of maximum RhoA activation", "setting": "RhoA", "value": 30, "unit": "min"},
      {"measurement": "time to activation of RhoA", "setting": "RhoA", "value": "≤ 3", "unit": "min"},
      {"measurement": "reduction of tumor-size", "setting": "[1]", "value": 60, "unit": "%"},
      {"measurement": "induction of apoptosis", "setting": "DU145 cells [2]", "value": "induced apoptosis"},
      {"measurement": "secretion of prostate-specific antigen (PSA)", "setting": "[3]", "value": "increase"},
      {"measurement": "FAK phosphorylation", "setting": "FAK/PI-3K/Rac1 pathway", "value": "neither apparent additional FAK phosphorylation could be documented"},
      {"measurement": "cell migration, adhesion and invasion", "setting": "DU-145 cells", "value": "decrease"},
      {"measurement": "induction of apoptosis", "setting": "LNCAP cells", "value": "induced apoptosis"}
    ]},
    {"molecule": "C[C@@H](N)[C@H]1CC[C@H](C(=O)Nc2ccncc2)CC1", "note": "[Y27632]", "values": [
      {"measurement": "effect on testo-BSA induced apoptotic response", "setting": "DU145 cells [2]", "value": "abrogating"},
      {"measurement": "effect on testosterone-induced rapid actin polymerization", "setting": "DU145 cells [4]", "value": "totally inhibited"}
    ]},
    {"molecule": "CC1NC(=O)C2CC(O)CN2C(=O)C2CSc3[nH]c4ccccc4c3CC(NC1=O)C(=O)NC(CC(C)(O)CO)C(=O)NC(C(C)C)C(=O)NC(C(O)C(=O)O)C(=O)N2", "note": "(stereo not drawn) [phallacidin] (cyclo([ξAsp(3ξ-OH)]C[Hyp]A[ξTrp(2-yl)][X1]V); thioether 2-5; configuration not given here)", "values": [
      {"measurement": "effect on apoptotic response of DU145 cells treated with Testo-BSA", "setting": "DU145 cells [2]", "value": "clear inhibition"}
    ]},
    {"molecule": "COC[C@H]1OC(=O)c2coc3c2[C@@]1(C)C1=C(C3=O)[C@@H]2CCC(=O)[C@@]2(C)C[C@H]1OC(C)=O", "note": "[wortmannin]", "values": [
      {"measurement": "effect on testo-BSA induced apoptotic response", "setting": "DU145 cells [2]", "value": "no effect"},
      {"measurement": "effect on testosterone-induced rapid actin polymerization", "setting": "DU145 cells [4]", "value": "no effect"}
    ]},
    {"molecule": "C=C1[C@@H](C)[C@H]2[C@H](Cc3ccccc3)NC(=O)[C@]23OC(=O)/C=C/[C@H](O)CCC[C@@H](C)C/C=C/[C@H]3[C@@H]1O", "note": "[cytochalasin B]", "values": [
      {"measurement": "effect on apoptotic response of DU145 cells treated with Testo-BSA", "setting": "DU145 cells [2]", "value": "clear inhibition"}
    ]}
  ]
}
